{"source": "patent US7365098B2", "about": "“N'-cyano-N-methyl-imidamide derivatives” (Bayer CropScience AG, priority 2002, dated 2008)", "key": {"[1]": {"experiment": "logP determination by HPLC on reversed-phase column (EEC-Directive 79/831 Annex V.A8)", "assay_type": "physicochemical", "conditions": "reversed-phase C 18, 43° C., acidic range (0.1% aqueous phosphoric acid/acetonitrile gradient); for chromatographic logP: reversed-phase HPLC column (C 18)", "procedure": "The logP values given in table 1 were determined in accordance with EEC-Directive 79/831 Annex V.A8 by HPLC (High Performance Liquid Chromatography) on a reversed-phase column (C 18). Temperature: 43° C. Mobile phases for the determination in the acidic range: 0.1% aqueous phosphoric acid, acetonitrile; linear gradient from 10% acetonitrile to 90% acetonitrile. Calibration was carried out using unbranched alkan-2-ones (having 3 to 16 carbon atoms) whose logP values are known (determination of the lopP values by the retention times using linear interpolation between two successive alkanones)."}, "Meloidogyne incognita": {"tested_on": "Meloidogyne incognita", "experiment": "Meloidogyne test (gall formation on lettuce roots)", "assay_type": "in vivo", "conditions": "for nematizidal activity (formation of galls): Meloidogyne incognita egg/larvae, lettuce in sand, result in words", "procedure": "• Solvent: 7 parts by weight of dimethylformamide • Emulsifier: 2 parts by weight of alkylaryl polyglycol ether To produce a suitable preparation of active compound, 1 part by weight of active compound is mixed with the stated amount of solvent and emulsifier, and the concentrate is diluted with water to the desired concentration. Containers are filled with sand, solution of active compound, Meloidogyne incognita egg/larvae suspension and lettuce seeds. The lettuce seeds germinate and the plants develop. On the roots, galls are formed. After the desired period of time, the nematizidal activity is the determined in percent by the formation of galls. 100% means that no galls were found; 0% means that the number of galls on the treated plants corresponds to that of the untreated control. […] The efficacy of the compounds is stated as kill rate in %."}, "Spodoptera frugiperda": {"tested_on": "Spodoptera frugiperda", "experiment": "Spodoptera frugiperda test (dipped cabbage leaves)", "assay_type": "in vivo", "conditions": "Spodoptera frugiperda caterpillars on cabbage leaves; result in words", "procedure": "[table] To produce a suitable preparation of active compound, 1 part by weight of active compound is mixed with the stated amount of solvent and emulsifier, and the concentrate is diluted with water to the desired concentration. Cabbage leaves (Brassica oleracea) are treated by being dipped into the preparation of active compound of the desired concentration and are populated with caterpillars of the Heerwurms (Spodoptera frugiperda) while the leaves are still moist. After the desired period of time, the kill in % is determined. 100% means that all caterpillars have been killed. 0% means that none of the caterpillars have been killed."}, "Phaedon cochleariae": {"tested_on": "Phaedon cochleariae", "experiment": "Phaedon larvae test (dipped cabbage leaves)", "assay_type": "in vivo", "conditions": "Phaedon cochleariae larvae on cabbage leaves; result in words", "procedure": "• Solvent: 7 parts by weight of dimethylformamide • Emulsifier: 2 parts by weight of alkylaryl polyglycol ether To produce a suitable preparation of active compound, 1 part by weight of active compound is mixed with the stated amounts of solvent and emulsifier, and the concentrate is diluted with emulsifier-containing water to the desired concentration. Cabbage leaves (Brassica oleracea) are treated by being dipped into the preparation of active compound of the desired concentration and are populated with larvae of the mustard beetle (Phaedon cochleariae) while the leaves are still moist. After the desired period of time, the kill in % is determined. 100% means that all beetle larvae have been killed. 0% means that none of the beetle larvae have been killed."}}, "data": [{"smiles": "CC/C(=N\\C#N)NC(C)c1ccc(Cl)cc1Cl", "note": "(stereo not drawn) [Example 1, N′-Cyano-N-[1-(2,4-dichlorophenyl)ethyl]propaneimidamide]", "values": [{"measurement": "chromatographic logP", "setting": "[1]", "value": 2.56}]}, {"smiles": "CC/C(=N\\C#N)N(C)C(C)c1ccc(Cl)cc1Cl", "note": "(stereo not drawn) [Example 2, N′-Cyano-N-[1-(2,4-dichlorophenyl)ethyl]-N-methylpropaneimidamide]", "values": [{"measurement": "chromatographic logP", "setting": "[1]", "value": 2.8}, {"measurement": "melting point", "value": 148, "unit": "°C"}]}, {"smiles": "C/C(=N\\C#N)N(C)C(C)c1ccc(Cl)cc1F", "note": "(stereo not drawn) [Example 3]", "values": [{"measurement": "nematizidal activity (formation of galls)", "setting": "Meloidogyne incognita", "value": "highly effective"}]}, {"smiles": "CC/C(=N\\C#N)N(C)C(C)c1ccc(Cl)cc1F", "note": "(stereo not drawn) [Example 4]", "values": [{"measurement": "nematizidal activity (formation of galls)", "setting": "Meloidogyne incognita", "value": "highly effective"}]}, {"smiles": "CC/C(=N\\C#N)N(C)C(C)c1cc(F)c(Cl)cc1F", "note": "(stereo not drawn) [Example 5]", "values": [{"measurement": "nematizidal activity (formation of galls)", "setting": "Meloidogyne incognita", "value": "highly effective"}, {"measurement": "kill of caterpillars", "setting": "Spodoptera frugiperda", "value": "highly effective"}]}, {"smiles": "C/C(=N\\C#N)N(C)C(C)c1cc(F)c(Cl)cc1F", "note": "(stereo not drawn) [Example 6]", "values": [{"measurement": "nematizidal activity (formation of galls)", "setting": "Meloidogyne incognita", "value": "highly effective"}]}, {"smiles": "C/C(=N\\C#N)N(C)C(C)c1ccc(Cl)c(F)c1", "note": "(stereo not drawn) [Example 7]", "values": [{"measurement": "chromatographic logP", "setting": "[1]", "value": 2.4}, {"measurement": "nematizidal activity (formation of galls)", "setting": "Meloidogyne incognita", "value": "highly effective"}]}, {"smiles": "CC/C(=N\\C#N)N(C)C(C)c1ccc(Cl)c(F)c1", "note": "(stereo not drawn) [Example 8]", "values": [{"measurement": "chromatographic logP", "setting": "[1]", "value": 2.61}, {"measurement": "nematizidal activity (formation of galls)", "setting": "Meloidogyne incognita", "value": "highly effective"}]}, {"smiles": "CC/C(=N\\C#N)N(C)C(C)c1cc(F)c(Cl)cc1Cl", "note": "(stereo not drawn) [Example 9]", "values": [{"measurement": "nematizidal activity (formation of galls)", "setting": "Meloidogyne incognita", "value": "highly effective"}, {"measurement": "kill of caterpillars", "setting": "Spodoptera frugiperda", "value": "highly effective"}]}, {"smiles": "CC/C(=N\\C#N)N(C)[C@@H](C)c1ccc(Cl)cc1F", "note": "[Example 10]", "values": [{"measurement": "chromatographic logP", "setting": "[1]", "value": 2.55}, {"measurement": "nematizidal activity (formation of galls)", "setting": "Meloidogyne incognita", "value": "highly effective"}]}, {"smiles": "CC/C(=N\\C#N)N(C)[C@H](C)c1ccc(Cl)cc1F", "note": "[Example 11]", "values": [{"measurement": "chromatographic logP", "setting": "[1]", "value": 2.55}, {"measurement": "nematizidal activity (formation of galls)", "setting": "Meloidogyne incognita", "value": "highly effective"}]}, {"smiles": "CC/C(=N\\C#N)N(C)[C@@H](C)c1cc(F)c(Cl)cc1F", "note": "[Example 12]", "values": [{"measurement": "chromatographic logP", "setting": "[1]", "value": 2.59}, {"measurement": "nematizidal activity (formation of galls)", "setting": "Meloidogyne incognita", "value": "highly effective"}]}, {"smiles": "CC/C(=N\\C#N)N(C)[C@H](C)c1cc(F)c(Cl)cc1F", "note": "[Example 13]", "values": [{"measurement": "chromatographic logP", "setting": "[1]", "value": 2.59}, {"measurement": "nematizidal activity (formation of galls)", "setting": "Meloidogyne incognita", "value": "highly effective"}]}, {"smiles": "C/C(=N\\C#N)N(C)C(C)c1ccc(Cl)c(Cl)c1", "note": "(stereo not drawn) [Example 14]", "values": [{"measurement": "chromatographic logP", "setting": "[1]", "value": 2.68}, {"measurement": "nematizidal activity (formation of galls)", "setting": "Meloidogyne incognita", "value": "highly effective"}]}, {"smiles": "CC/C(=N\\C#N)N(C)C(C)c1ccc(Cl)c(Cl)c1", "note": "(stereo not drawn) [Example 15]", "values": [{"measurement": "chromatographic logP", "setting": "[1]", "value": 2.9}, {"measurement": "nematizidal activity (formation of galls)", "setting": "Meloidogyne incognita", "value": "highly effective"}]}, {"smiles": "CC/C(=N\\C#N)N(C)C(C)c1cc(F)c(F)cc1F", "note": "(stereo not drawn) [Example 16]", "values": [{"measurement": "chromatographic logP", "setting": "[1]", "value": 2.31}]}, {"smiles": "C/C(=N\\C#N)N(C)C(C)c1ccc(Cl)cc1Cl", "note": "(stereo not drawn) [Example 17]", "values": [{"measurement": "chromatographic logP", "setting": "[1]", "value": 2.58}, {"measurement": "nematizidal activity (formation of galls)", "setting": "Meloidogyne incognita", "value": "highly effective"}]}, {"smiles": "CC/C(=N\\C#N)N(C)C(C)c1ccc(Cl)c(Cl)c1Cl", "note": "(stereo not drawn) [Example 18]", "values": [{"measurement": "nematizidal activity (formation of galls)", "setting": "Meloidogyne incognita", "value": "highly effective"}]}, {"smiles": "C/C(=N\\C#N)N(C)C(C)c1cc(Cl)c(Cl)cc1Cl", "note": "(stereo not drawn) [Example 19]", "values": [{"measurement": "chromatographic logP", "setting": "[1]", "value": 2.9}, {"measurement": "nematizidal activity (formation of galls)", "setting": "Meloidogyne incognita", "value": "highly effective"}, {"measurement": "kill of caterpillars", "setting": "Spodoptera frugiperda", "value": "highly effective"}, {"measurement": "kill of beetle larvae", "setting": "Phaedon cochleariae", "value": "highly effective"}]}, {"smiles": "CC/C(=N\\C#N)N(C)C(C)c1cc(Cl)c(Cl)cc1Cl", "note": "(stereo not drawn) [Example 20]", "values": [{"measurement": "chromatographic logP", "setting": "[1]", "value": 3.18}, {"measurement": "nematizidal activity (formation of galls)", "setting": "Meloidogyne incognita", "value": "highly effective"}]}, {"smiles": "CC/C(=N\\C#N)N(C)C(C)c1ccc(Cl)c(Br)c1", "note": "(stereo not drawn) [Example 21]", "values": [{"measurement": "chromatographic logP", "setting": "[1]", "value": 2.94}]}, {"smiles": "CC/C(=N\\C#N)N(C)C(C)c1c(F)cccc1Cl", "note": "(stereo not drawn) [Example 22]", "values": [{"measurement": "chromatographic logP", "setting": "[1]", "value": 2.19}, {"measurement": "nematizidal activity (formation of galls)", "setting": "Meloidogyne incognita", "value": "highly effective"}]}, {"smiles": "CC/C(=N\\C#N)N(C)C(C)c1c(F)cccc1Cl", "note": "(stereo not drawn) [Example 23]", "values": [{"measurement": "logP", "setting": "[1]", "value": "logP: 2.40"}, {"measurement": "nematizidal activity (formation of galls)", "setting": "Meloidogyne incognita", "value": "highly effective"}]}, {"smiles": "C/C(=N\\C#N)N(C)C(C)c1cc(Cl)ccc1Cl", "note": "(stereo not drawn) [Example 24]", "values": [{"measurement": "chromatographic logP", "setting": "[1]", "value": 2.46}, {"measurement": "nematizidal activity (formation of galls)", "setting": "Meloidogyne incognita", "value": "highly effective"}]}, {"smiles": "CC/C(=N\\C#N)N(C)C(C)c1ccc(Br)c(Cl)c1", "note": "(stereo not drawn) [Example 25]", "values": [{"measurement": "chromatographic logP", "setting": "[1]", "value": 2.94}, {"measurement": "nematizidal activity (formation of galls)", "setting": "Meloidogyne incognita", "value": "highly effective"}]}, {"smiles": "C/C(=N\\C#N)N(C)C(C)c1ccc(F)c(F)c1", "note": "(stereo not drawn) [Example 26]", "values": [{"measurement": "chromatographic logP", "setting": "[1]", "value": 2.09}, {"measurement": "nematizidal activity (formation of galls)", "setting": "Meloidogyne incognita", "value": "highly effective"}]}, {"smiles": "CC/C(=N\\C#N)N(C)C(C)c1ccc(F)c(F)c1", "note": "(stereo not drawn) [Example 27]", "values": [{"measurement": "chromatographic logP", "setting": "[1]", "value": 2.32}, {"measurement": "nematizidal activity (formation of galls)", "setting": "Meloidogyne incognita", "value": "highly effective"}]}, {"smiles": "C/C(=N\\C#N)N(C)C(C)c1cccc(Cl)c1Cl", "note": "(stereo not drawn) [Example 28]", "values": [{"measurement": "chromatographic logP", "setting": "[1]", "value": 2.37}, {"measurement": "nematizidal activity (formation of galls)", "setting": "Meloidogyne incognita", "value": "highly effective"}]}, {"smiles": "CC/C(=N\\C#N)N(C)C(C)c1cccc(Cl)c1Cl", "note": "(stereo not drawn) [Example 29]", "values": [{"measurement": "chromatographic logP", "setting": "[1]", "value": 2.59}, {"measurement": "nematizidal activity (formation of galls)", "setting": "Meloidogyne incognita", "value": "highly effective"}]}, {"smiles": "CC/C(=N\\C#N)N(C)C(C)c1cc(F)c(Br)cc1F", "note": "(stereo not drawn) [Example 30]", "values": [{"measurement": "chromatographic logP", "setting": "[1]", "value": 2.66}]}, {"smiles": "CC/C(=N\\C#N)N(C)C(C)c1ccc(Cl)cc1Cl", "note": "(stereo not drawn) [drawing 44]", "values": [{"measurement": "efficacy stated as kill rate in %", "setting": "Meloidogyne incognita; 20 ppm active compound", "value": "20 ppm: 100%"}]}, {"smiles": "CC/C(=N\\C#N)NC(C)c1ccc(Cl)cc1Cl", "note": "(stereo not drawn) [drawing 45, reference compound]", "values": [{"measurement": "efficacy stated as kill rate in %", "setting": "Meloidogyne incognita; 20 ppm active compound", "value": "20 ppm: 0%"}]}, {"smiles": "CC/C(=N\\C#N)N(C)C(C)c1ccc(Cl)c(F)c1", "note": "(stereo not drawn) [drawing 46]", "values": [{"measurement": "efficacy stated as kill rate in %", "setting": "Meloidogyne incognita; 4 ppm active compound", "value": "4 ppm: 100%"}]}, {"smiles": "C/C(=N\\C#N)N(C)C(C)c1ccc(Cl)cc1Cl", "note": "(stereo not drawn) [drawing 48]", "values": [{"measurement": "efficacy stated as kill rate in %", "setting": "Meloidogyne incognita; 4 ppm active compound", "value": "4 ppm: 100%"}]}, {"smiles": "CC/C(=N\\C#N)NC(C)c1ccc(Cl)c(F)c1", "note": "(stereo not drawn) [reference compound]", "values": [{"measurement": "efficacy stated as kill rate in %", "setting": "Meloidogyne incognita; 4 ppm active compound", "value": "4 ppm: 0%"}]}, {"smiles": "C/C(=N\\C#N)NC(C)c1ccc(Cl)cc1Cl", "note": "(stereo not drawn) [reference compound]", "values": [{"measurement": "efficacy stated as kill rate in %", "setting": "Meloidogyne incognita; 5 ppm active compound", "value": "5 ppm: 0%"}]}]}
